The results in this text go back to patent publication US20210340178A1, “NONAPEPTIDE PREVENTING INCREASED HYPERPERMEABILITY OF VASCULAR ENDOTHELIUM” (FEDERALNOYE GOSUDARSTVENNOE BUDGETNOE UCHREZHDENIE …, priority 2018, published 2021).

For data set [1] the following is noted: rabbit, in vivo.
In a further data set the test system is Chinchilla rabbits. Nature of the data set: Tolerance of a single intravenous injection in Chinchilla rabbits. The conditions noted are these: i.v. 10 mg/kg.
A short description of data set [2]: Peptide half-lives in human plasma in vitro (1H-NMR spectroscopy). Type of data set: in vitro ADME. The note with it: for half-life: human, plasma. How it is done: Whole blood (100 mL) was collected from healthy donors to 50-mL tubes containing 5 mL of a preservative (130 mM citrate in phosphate buffered saline (PBS), pH 7.4). The blood was incubated for 15-20 min at room temperature followed by centrifugation at 1500 g for 15 min at 18° C. The supernatants were transferred to clear tubes and centrifuged as above. Dry NaBr was added to the plasma (280 mg per 1 mL of plasma). After dissolution of NaBr, the plasma (approx. 30 mL) was transferred to centrifuge tubes (Type 45Ti rotor, Beckman, USA) and layered with 20 mL of a solution (specific mass of […]), which was prepared as follows—11.42 g of NaCl and 100 mg of ethylenediaminetetraacetic acid (EDTA) were dissolved in distilled water in a final volume of 1 L (pH 7.4) and 281.44 g of NaBr was added. The plasma was centrifuged at 40,000 rpm for 48 hrs. The upper dark-yellow fraction containing lipoproteins and the colorless buffer fraction were discarded leaving approx. 1-cm high buffer above the apparent plasma border. Portions of plasma obtained from one donor were pooled and dialyzed for 36 hrs against 4 L of PSB free of Ca^2+ and Mg^2+(MP Biomedicals, USA) in dialysis bags with 12-14 kDa pore sizes. The dialysis procedure was repeated twice with fresh buffer changed every 24 hrs. After the dialysis, the plasma was centrifuged at 25,000 rpm (Type 45Ti rotor, Beckman, USA) for 15 min at 4° C. The supernatant fraction was collected and lyophilized. The dry matter was dissolved in D2O in a final volume equal to the plasma volume before NaBr was added, lyophilized again, dissolved in the same volume of D2O, and stored in 1-mL aliquots at −20° C. before use.
^1H-NMR spectroscopy was employed to analyze relative degradation of PIK7 (the claimed peptide) and MLC11-19 (the structural analogue) in human plasma. ^1H-NMR spectroscopy allows simultaneous direct monitoring the amounts of original full-length peptide and its fragments during the course of enzymatic hydrolysis (Isakova et al., 1986). Stability of a peptide, its degradation pathway(s) and a half-life estimate are available from a comparison of spectra obtained at different time points after the addition of a peptide to plasma. ^1H-NMR spectra were obtained using a WM-500 spectrometer (Bruker, Germany) at 37° C. Chemical shifts in ^1H-NMR spectra were measured relative to an internal standard (2,2-dimethyl-2-silapentane-5-sulfonate sodium salt). The signals were referenced by the double-resonance method. The resonances from peptide protons were identified by the differential spectroscopy method, i.e. the spectrum of blood plasma was subtracted from each spectrum obtained in the presence of peptide of interest. Peptide concentrations were 3 mg/ml.
These indicate the peptide N-terminus degradation. […] Therefore, the claimed peptide has an increased life-span in plasma that allows for long-lasting maintenance of its effective concentrations necessary to decrease the endothelial hyperpermeability under emergency conditions. Moreover, an increased life-time allows attaining the desired therapeutic effect with lower (as compared to homologues) peptide concentrations.

For data set [3], the system named is EA.hy926 endothelial cell monolayer. Nature of the data set: Thrombin-mediated FITC-dextran permeability through endothelial cell monolayer. Type of data set: cell-based. The conditions noted are these: peptide 100 μM, 60 min preincubation; thrombin 100 nM; 70 kDa FITC-dextran. The protocol:
FIG. 3. The thrombin-mediated FITC-dextran permeability through the EA.hy926 endothelial cell monolayer in the presence of myosin light chain kinase peptide inhibitors. Thrombin (100 nM) was added at 0 min, the cells were preincubated for 60 min with MLCK peptide inhibitors (100 μM). Data are presented as mean±SD, n=5. p<0.05 for all data points within the 20-180 min time course range as compared to the thrombin-stimulated control.
Effects of the claimed peptide (PIK7), the prototype (PIK2), and the analogue (MLC11-19) on the endothelial permeability was assayed in a model of FITC-dextran diffusion through the endothelial monolayer as described in Example 3.
Cells were grown in 24-well plates (Greiner Bio-one, Austria) equipped with special inserts to form inner (upper) chambers with a porous bottom (the pore diameter of 0.4 μm, pore density of 10^8/cm^2) in DMEM until monolayer was formed (3-4 days). Successful monolayer was checked by measuring FITC-dextran diffusion for 1 hour through inserts with cell monolayers vs inserts without cells (‘blank’ inserts). Experiments were performed in triplicates when tight monolayers were formed. On the day of experiment, the cells were deprived for 1 h in DMEM supplemented with MLCK inhibitors or without inhibitors (control). After deprivation, FITC-dextran was added to the upper compartment to a final concentration of 0.05 mg/ml. In 30 and 60 min, a 10-μ1 aliquot was withdrawn from the lower compartment and mixed with 100 μl phosphate buffered saline pH 7.3 in a 96-well plate to estimate the endothelial monolayer baseline permeability. […] During the next 3 hrs, every 30 min, aliquots were taken from the lower compartment, and intensity of FITC fluorescence was measured using a Victor 3X plate reader (Perkin Elmer, USA) to plot the dynamics of the FITC fluorescence changes.
As shown, 100 nM thrombin induces the endothelial hyperpermeability response as reflected by an increase in 70 kDa FITC-dextran diffusion through the endothelial monolayer and an incremental increase in the fluorescence in the lower compartment of the diffusion chamber. […]

The next data set relates to BALB/c mice. Nature of the data set: Acute toxicity in mice, single injection. Type of data set: in vivo. How it is done: (§1) The study was conducted in 82 BALB/c mice (both males and females, body weight 18-24 g) obtained from the animal facility of the Scientific Center for Biomedical Technologies of the Federal Medico-Biological Agency of the Russian Federation (SCBMT). The animals were certified and otherwise healthy. The animals were kept in T-3 cages (5-10 animals per cage) with artificial 12 hrs light-dark cycles and 16× per hour forced air ventilation, temperature of 20-22° C. and 50-65% humidity on wood chips sterilized by hot air. The animals had free access to drinking water and PK-120-1 mouse cubes (GOST P50258-92; Laboratorsnab LLC, Russia).
(§2) PIK2 and PIK7 peptides were dissolved in water and administered to mice as a single intraperitoneal injection. The animals were followed for 14 days after peptide injections. An increasing dosage scheme was applied where each tested dose surpassed the previous dose by 50%. The lowest dose of the active substance was determined that caused animal death.

Data set [4] is described as follows: Acute toxicity in mice, single injection. In kind it is in vivo. The note with it: mouse, in vivo; mice, Table 3; read-out: Toxicity LD50 in mice. The protocol: as §1, §2

Molecules are shown by their SMILES. Entries after “also recorded” stand apart in the source; their conditions may differ. Where two headings read alike, the source gives them in different places. Non-standard residues stand in square brackets, D forms with d. Residues, ends and D or L forms follow the SMILES beside them. Some results are limits rather than exact numbers.

By LD50 is commonly meant the dose at which mortality reaches 50%.

Procedure for Chinchilla rabbits: PIK2 dose of 5 mg/kg was calculated individually for each rabbit and administered into marginal ear vein in a final volume of 1.7-1.9 mL in sterile physiological saline. Stock concentration of the tested substance was 10 mg/mL.
During the 24-hrs testing period, the overall health status and behavior were monitored (appetite, motion activity, hair coat condition).
Before injection of test substances (baseline) and 4 hrs and 24 hrs after the injection, the following parameters were tested in whole venous blood samples (3.0-3.5 mL) collected from a marginal ear vein red blood cell (RBC) count, hematocrit, hemoglobin level, mean RBC volume, mean corpuscular hemoglobin, total leukocyte, lymphocyte, and granulocyte counts and their percentages, platelet count, and mean platelet volume. In parallel, the following biochemical parameters were measured in serum total protein, bilirubin, urea, creatinine, glucose, total cholesterol, triglycerides, and activities of alkaline phosphatase, lactate dehydrogenase, aspartate aminotransferase, and alanine aminotransferase. Blood cell count was performed using an Abacus junior vet (Austria) hematological cell counter; biochemical studies were performed using a Targa-2000 (Italy) instrument.

With `C[C@H](NC(=O)[C@H](C)NC(=O)[C@H](CCCNC(=N)N)NC(=O)[C@@H](CCCCN)NC(=O)[C@@H](N)CCCCN)C(=O)N[C@@H](CCCNC(=N)N)C(=O)N[C@@H](C)C(=O)N[C@H](C(=O)N[C@@H](CO)C(N)=O)[C@@H](C)O` [PIK7, H-Lys-D-Lys-Arg-Ala-Ala-Arg-Ala-Thr-Ser-NH2] (H-K[dK]RAARATS-NH2), the LD50 in data set [1] is > 10 mg/kg; in data set [4] it was > 1000 mg/kg. For the same molecule, the “other standard hematological and biochemical parameters” value in the data set on Chinchilla rabbits is given as “not altered”. In addition, in the data set with Chinchilla rabbits (24-hrs testing period), the “overall health status and behavior” value is “no significant changes either in the overall health status or behavior”. Further, the triglyceride levels with Chinchilla rabbits (24 hrs after administration, baseline 1.63 mmol/L) stood at 2.79 mmol/L. In addition, in the data set with Chinchilla rabbits (24 hrs after administration, baseline 38.81±1.49%), the hematocrit came out at 35.90±0.18%. Also, the total plasma protein with Chinchilla rabbits (24 hrs after administration, baseline 73.6±2.58 g/L) was determined as 69.2 ± 0.47 g/L. This molecule also returned a hemoglobin level in the data set on Chinchilla rabbits (24 hrs after administration, baseline 131±5 g/L) of 120 ± 7 g/L. Moreover, in the data set on Chinchilla rabbits (group of 4), the survival result is given as “all animals survived”. Also, the “T1/2, half-life in human plasma in vitro” value in data set [2] (1H-NMR, 37° C., peptide 3 mg/ml) is ≥5.33 h. Moreover, in data set [2] (human plasma in vitro), the “resistance to proteolysis as compared to the structural analogue (MLC11-19)” value is listed as “by one order of magnitude”. The half-life was ≥ 7 h in data set [2] (1H-NMR, 37° C., peptide 3 mg/ml (FIG. 2), read-out: half-life in human plasma) and > 5.33 h in data set [2] (1H-NMR, 37° C., peptide 3 mg/ml, read-out: T1/2, half-life in human plasma in vitro). Further, the “effect on thrombin-induced FITC-dextran hyperpermeability” value in data set [3] was “completely abolished the FITC-dextran hyperpermeability; also recorded: effectively abolished FITC-dextran hyperpermeability”. Besides, in the data set on BALB/c mice (BALB/c mice, single intraperitoneal injection), the “lowest lethal dose, fold higher than with PIK2” value came to 47 fold. For the same molecule, the “lowest dose of the active substance that caused animal death” value with BALB/c mice (BALB/c mice, single intraperitoneal injection, followed 14 days) worked out at 1274 mg/kg. For the same molecule, in the data set on BALB/c mice (mice, single intraperitoneal injection of a toxic dose), the “signs after a toxic dose” value is “movement retardation and death within the following 24 hrs”.
